Results published in BindingDB's records for doi:10.7270/Q28G8J4C (Broad Institute, 2009).

Biological target: T1, POsterior Segregation (Caenorhabditis elegans, UniProt G5EF15)
T1 sequence (G5EF15 whole entry): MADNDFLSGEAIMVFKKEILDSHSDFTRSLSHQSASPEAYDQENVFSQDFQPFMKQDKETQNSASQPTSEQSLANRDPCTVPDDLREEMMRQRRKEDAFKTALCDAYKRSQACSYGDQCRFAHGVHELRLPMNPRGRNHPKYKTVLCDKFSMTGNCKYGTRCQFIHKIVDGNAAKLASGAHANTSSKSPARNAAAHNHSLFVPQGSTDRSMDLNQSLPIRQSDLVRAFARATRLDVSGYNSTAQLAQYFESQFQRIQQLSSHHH
Test: disruptors of C. elegans POS-1 RNA interaction – biochemical, fluorescence polarization, dose response (AID 1964)

Molecule `O=C1N=c2ccc(Br)cc2=C1NNc1nnn[nH]1` [5-bromanyl-3-[2-(2H-1,2,3,4-tetrazol-5-yl)hydrazinyl]indol-2-one] has an EC50 of 14 µM.

With `Cc1cc(C=C2C(=O)NC(=O)N(c3ccccc3)C2=O)c(C)n1-c1ccc(F)cc1` [(5Z)-5-[[1-(4-fluorophenyl)-2,5-dimethyl-3-pyrrolyl]methylidene]-1-phenyl-1,3-diazinane-2,4,6-trione] the EC50 was 101 µM.

`COc1ccc(C(C)N=Nc2nc3ccccc3nc2C)cc1OC` (configuration not stated) [MLS001029936] was tested, and the EC50 was 5.07 µM.

In the case of `O=C1c2cccc([N+](=O)[O-])c2C(=O)N1n1c(O)csc1=S` [2-(4-keto-2-thioxo-thiazolidin-3-yl)-4-nitro-isoindoline-1,3-quinone], the EC50 is reported as 24.9 µM.

Molecule `COc1ccc(C2C3=C(CC(C)(C)CC3=O)OC(=N)C2C#N)cc1` (configuration not stated) [2-amino-4-(4-methoxyphenyl)-7,7-dimethyl-5-oxo-6,8-dihydro-4H-1-benzopyran-3-carbonitrile] has an EC50 of 69.7 µM.

In the case of `COc1cc2c(cc1C1C3=C(CC(C)(C)CC3=O)OC(=N)C1C#N)OCO2` (configuration not stated) [MLS001208406], the EC50 is reported as over 300 µM.

For `C=CCOc1ccc(C2C(C(=O)c3ccco3)C(=O)C(=O)N2c2nnc(C)s2)cc1` (configuration not stated) [3-(furan-2-carbonyl)-4-hydroxy-1-(5-methyl-1,3,4-thiadiazol-2-yl)-2-(4-prop-2-enoxyphenyl)-2H-pyrrol-5-one], the EC50 was over 300 µM.

`COc1ccc(C2C3=C(CC(C)(C)CC3=O)OC(=N)C2C#N)cc1OC` (configuration not stated) [2-amino-4-(3,4-dimethoxyphenyl)-5-keto-7,7-dimethyl-6,8-dihydro-4H-chromene-3-carbonitrile] showed an EC50 of over 300 µM.

`CCOc1cc(C2C(C(C)=O)=C(C)OC(=N)C2C#N)cc(Br)c1O` (configuration not stated) [2-azanyl-4-(3-bromanyl-5-ethoxy-4-oxidanyl-phenyl)-5-ethanoyl-6-methyl-4H-pyran-3-carbonitrile] showed an EC50 of 12.3 µM.

`CCOC(=O)C1C(=O)C(=Cc2cn(CC(=O)N3CCCC3)c3ccccc23)S/C1=N\c1ccccc1` (configuration not stated) [(5Z)-2-anilino-4-keto-5-[[1-(2-keto-2-pyrrolidino-ethyl)indol-3-yl]methylene]thiophene-3-carboxylic acid ethyl ester] gave an EC50 of 47.5 µM.

With `CN1CCC2=C(C#N)C(=N)C(C#N)(C#N)C(c3cccc(Cl)c3Cl)C2C1` (configuration not stated) [6-azanyl-8-[2,3-bis(chloranyl)phenyl]-2-methyl-1,3,8,8a-tetrahydroisoquinoline-5,7,7-tricarbonitrile] the EC50 was 14.4 µM.

`Cc1cc(=O)n(-c2ccc(C(=O)O)c(N)c2)[nH]1` [MLS000690508] gave an EC50 of 85.5 µM.

`O=C1N=c2ccccc2=C1NNc1cccc(Cl)c1` [(3E)-1H-indole-2,3-dione 3-[(3-chlorophenyl)hydrazone]] showed an EC50 of 125 µM.

With `CCOc1ccc(N2C(=O)NC(=O)C(=Cc3c[nH]c4ccccc34)C2=O)cc1` [(5E)-1-(4-ethoxyphenyl)-5-(1H-indol-3-ylmethylidene)-1,3-diazinane-2,4,6-trione] the EC50 was 20.9 µM.

Work on `COc1ccc(C=C2CCCC(C(=O)C(F)(F)F)C2=O)cc1` (configuration not stated) [SMR000142699] yielded an EC50 of 36 µM.

In the case of `CCCCN1C(=O)/C(=C2/Sc3ccccc3N2C)SC1=Nc1nnc[nH]1` [SMR000282142], the EC50 is reported as 58.7 µM.

In the case of `CCOC(=O)c1c(NC=C2C(=O)NC(=S)NC2=O)sc(C)c1C` [ethyl 2-[[4,6-bis(oxidanylidene)-2-sulfanylidene-1,3-diazinan-5-yl]methylideneamino]-4,5-dimethyl-thiophene-3-carboxylate], the EC50 is reported as over 300 µM.

`O=C(N/N=C/C1C=C(Cl)C=C([N+](=O)[O-])C1=O)c1ccccc1NS(=O)(=O)c1cccs1` (configuration not stated) [SMR000364876] showed an EC50 of 282 µM.

`Cc1[nH]n(C(N)=S)c(=O)c1N=Nc1c(Cl)cc([N+](=O)[O-])cc1Cl` [SMR000514008] was tested, and the EC50 was over 300 µM.

In the case of `COc1cc(C2C3CN(C)CCC3=C(C#N)C(=N)C2(C#N)C#N)ccc1OC(C)C` (configuration not stated) [MLS000034945], the EC50 is reported as over 300 µM.

With `COc1cccc(C2C(C(=O)c3cc4cccc(OC)c4o3)C(=O)C(=O)N2c2cc(C)on2)c1OC` (configuration not stated) [2-(2,3-dimethoxyphenyl)-3-[(7-methoxy-1-benzofuran-2-yl)carbonyl]-1-(5-methyl-1,2-oxazol-3-yl)-4-oxidanyl-2H-pyrrol-5-one] the EC50 was over 300 µM.

Work on `O=C(O)c1ccc(S(=O)(=O)N=C2C=C(Nc3ccccc3F)C(=O)c3ccccc32)cc1` yielded an EC50 of 117 µM.

Work on `C=CCN1C(=O)NC(=O)C(=CCC=Nc2ccccc2)C1=O` [(5Z)-5-[(E)-3-phenylazanylprop-2-enylidene]-1-prop-2-enyl-1,3-diazinane-2,4,6-trione] yielded an EC50 of over 300 µM.

`C[C@H]1c2cccc(O)c2C(=O)C2C(=O)[C@]3(O)C(=O)C(C(N)=O)C(=O)[C@@H](N(C)C)[C@@H]3[C@@H](O)[C@@H]21` (some centres not stated) gave an EC50 of over 300 µM.

For `N#CC1=C2CCOC[C@@H]2[C@@H](c2ccsc2)C(C#N)(C#N)C1=N` [(8R,8aR)-6-amino-8-(3-thienyl)-1,3,8,8a-tetrahydroisochromene-5,7,7-tricarbonitrile], the EC50 was over 300 µM.

With `CN(C)[C@@H]1C(=O)C(C(N)=O)C(=O)[C@@]2(O)C(=O)C3C(=O)c4c(O)cccc4[C@@](C)(O)C3C(O)C12` (some centres not stated) [SMR000875333] the EC50 was 54.1 µM.

`C=CC1=C(C(=O)O)N2C(=O)[C@@H](NC(=O)C(N=O)c3csc(N)n3)[C@H]2SC1` (stereo partly drawn) [(6R,7R)-7-[[2-(2-azanyl-1,3-thiazol-4-yl)-2-hydroxyimino-ethanoyl]amino]-3-ethenyl-8-oxidanylidene-5-thia-1-azabicyclo[4.2.0]oct-2-ene-2-carboxylic acid] gave an EC50 of 49.8 µM.

Work on `C=CCN1C(=O)NC(=O)C(=CNc2ccc(N(CC)CC)cc2)C1=O` [(5E)-1-allyl-5-[[4-(diethylamino)anilino]methylene]barbituric acid] yielded an EC50 of 109 µM.

Work on `O=C1N=c2ccccc2=C1NNc1ccc(F)cc1` yielded an EC50 of over 300 µM.

In the case of `Cc1nnc(SC(=Cc2ccc(OCc3ccc(C(=O)O)cc3)cc2)C(=O)O)[nH]1` [4-[[4-[(E)-2-[(5-methyl-1H-1,2,4-triazol-3-yl)sulfanyl]-3-oxidanyl-3-oxidanylidene-prop-1-enyl]phenoxy]methyl]benzoic acid], the EC50 is reported as 17.8 µM.

Molecule `O=C(O)c1cc(-c2ccc(CN=Nc3ccc([N+](=O)[O-])cn3)o2)ccc1Cl` [2-chloro-5-[5-[[(5-nitropyridin-2-yl)hydrazinylidene]methyl]furan-2-yl]benzoic acid] has an EC50 of 31 µM.

`C=CCc1cccc(C=Nn2cnnc2)c1O` [(6E)-2-allyl-6-[(1,2,4-triazol-4-ylamino)methylene]cyclohexa-2,4-dien-1-one] showed an EC50 of 226 µM.

Work on `C=CCn1c(=O)c(=Cc2ccsc2)s/c1=C(\C#N)C(=O)NCCN1CCOCC1` [2-[3-allyl-4-keto-5-(3-thenylidene)thiazolidin-2-ylidene]-2-cyano-N-(2-morpholinoethyl)acetamide] yielded an EC50 of 6.5 µM.

`N#CC1C(=N)Oc2ccc3ccc(O)cc3c2C1c1ccsc1` (configuration not stated) [3-amino-9-hydroxy-1-(3-thienyl)-1H-benzo[f]chromene-2-carbonitrile] was tested, and the EC50 was 76.1 µM.

For `CCCSc1nnc(N2C(=O)C(=O)C(C(=O)c3ccco3)C2c2ccccc2F)s1` (configuration not stated) [2-(2-fluorophenyl)-3-(furan-2-carbonyl)-4-hydroxy-1-(5-propylsulfanyl-1,3,4-thiadiazol-2-yl)-2H-pyrrol-5-one], the EC50 was over 300 µM.

With `O=C1NC(=O)N(Cc2ccccc2Cl)C(=O)C1=CNc1ccc(F)cc1` [(5E)-1-(2-chlorobenzyl)-5-[(4-fluoroanilino)methylene]barbituric acid] the EC50 was over 300 µM.

In the case of `CCN(CC)c1ccc(C=NC(C#N)C(=N)C#N)cc1` (configuration not stated) [SMR000023871], the EC50 is reported as 281 µM.
